Measured values as given in ChEMBL document CHEMBL1201862, “PubChem BioAssay data set” (2004).
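Cultured in 96-well plates, cells were exposed to test compound for 48 hours across five concentrations. Abbreviation: GI50, concentration required for 50% inhibition of growth.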 Active and inactive are the calls of the source. Rule as the data show it: active = GI50 up to about 1.1 µM and inactive = higher.

Legend:
Assay in all cases: DTP human tumour cell line panel, 48 h
[1] = tested on: CCRF-CEM
[2] = tested on: DU-145
[3] = tested on: EKVX
[4] = tested on: HCT-116
[5] = tested on: HCT-15
[6] = tested on: HT-29
[7] = tested on: MDA-MB-231
[8] = tested on: MDA-MB-435
[9] = tested on: MDA-N
[10] = tested on: NCI-H226
[11] = tested on: OVCAR-3
[12] = tested on: OVCAR-4
[13] = tested on: OVCAR-5
[14] = tested on: RPMI-8226
[15] = tested on: SK-OV-3
[16] = tested on: SW-620
[17] = tested on: UACC-257

SMILES | GI50 [1] | GI50 [2] | GI50 [3] | GI50 [4] | GI50 [5] | GI50 [6] | GI50 [7] | GI50 [8] | GI50 [9] | GI50 [10] | GI50 [11] | GI50 [12] | GI50 [13] | GI50 [14] | GI50 [15] | GI50 [16] | GI50 [17]
CC(C)=CC[S+]([O-])c1ccccc1NC1=CC(=O)CC(C)(C)C1 (centres undefined) | > 100 µM (inactive) | > 100 µM (inactive) | > 100 µM (inactive) | > 100 µM (inactive) | 8.3 µM | > 100 µM (inactive) | > 100 µM (inactive) | > 100 µM (inactive) | > 100 µM (inactive) | > 100 µM (inactive) | > 100 µM (inactive) | > 100 µM (inactive) | > 100 µM (inactive) | > 100 µM (inactive) | > 100 µM (inactive) | > 100 µM (inactive) | > 100 µM (inactive)
COc1cc(Nc2cc(Cl)cc(Cl)c2)nc(N)n1 | 17.6 µM (inactive) | 18.8 µM (inactive) | 6.11 µM (inactive) | 16.9 µM (inactive) | 17.1 µM | 17.8 µM (inactive) | 18.9 µM (inactive) | 24.5 µM (inactive) | 27.1 µM (inactive) | 19.4 µM (inactive) | 17.2 µM (inactive) | 17.9 µM (inactive) | 40 µM (inactive) | 19.9 µM (inactive) | 27.5 µM (inactive) | 19.7 µM (inactive) | 19.3 µM (inactive)
COc1cc2c(c3nc4ccccc4nc13)-c1ccc(SC)c(=O)cc1[C@@H](NC(C)=O)CC2 | 0.0601 µM (active) | 0.129 µM (active) | 0.0525 µM (active) | 0.0372 µM (active) | 1.23 µM | 0.0364 µM (active) | 0.0966 µM (active) | 0.0166 µM (active) | 0.0188 µM (active) | 0.135 µM (active) | 0.0545 µM (active) | 0.0562 µM (active) | – | 0.0387 µM (active) | 0.266 µM (active) | 0.0752 µM (active) | 0.069 µM (active)
CC(=O)OC(C)c1cc2c(s1)C(=O)c1sccc1C2=O (centres undefined) | 2.76 µM (inactive) | 0.416 µM (active) | 2.03 µM (inactive) | 1.46 µM (inactive) | 0.902 µM | 1.96 µM (inactive) | 1.34 µM (inactive) | 0.192 µM (active) | 0.0735 µM (active) | 2.04 µM (inactive) | 0.604 µM (active) | 1.96 µM (inactive) | 1.73 µM (inactive) | 0.951 µM (active) | 2.95 µM (inactive) | 0.714 µM (active) | 0.215 µM (active)
CC1OC(O)CC(N(C)C)C1O.CC1OC(O)CCC1O.CCC1CC(O)c2c(O)c3c(c(O)c2C1O)C(=O)c1cccc(O)c1C3=O (centres undefined) | 0.0223 µM (active) | 0.0333 µM (active) | 0.0281 µM (active) | 0.00771 µM (active) | 0.0381 µM | 0.0126 µM (active) | 0.0275 µM (active) | 0.023 µM (active) | 0.0284 µM (active) | 0.0168 µM (active) | 0.021 µM (active) | 0.0203 µM (active) | 0.0375 µM (active) | 0.0208 µM (active) | 0.033 µM (active) | 0.014 µM (active) | 0.0342 µM (active)
COc1ccc2c(c1)c1c(n2CCN2CCOCC2)-c2ccccc2CC1 | 27.2 µM (inactive) | 35.7 µM (inactive) | – | 33.5 µM (inactive) | 29.9 µM | 36.6 µM (inactive) | 29.4 µM (inactive) | 34 µM (inactive) | 32.2 µM (inactive) | 21.4 µM (inactive) | 44.8 µM (inactive) | 48.4 µM (inactive) | 71.4 µM (inactive) | 22.5 µM (inactive) | > 100 µM (inactive) | 32 µM (inactive) | 47.1 µM (inactive)
Cc1cc(S(=O)(=O)Nc2nc3ccccc3nc2-c2cccc([N+](=O)[O-])c2)c(S)cc1Cl | 23.5 µM (inactive) | 18.5 µM (inactive) | 22.1 µM (inactive) | 18.8 µM (inactive) | 43 µM | 17.9 µM (inactive) | 58.5 µM (inactive) | 19.8 µM (inactive) | 20.5 µM (inactive) | 21.4 µM (inactive) | 15.9 µM (inactive) | 27.5 µM (inactive) | 36.6 µM (inactive) | 19.2 µM (inactive) | 16.6 µM (inactive) | – | 18.1 µM (inactive)
CC1CC2=C(C1)C(C1(C)C(=O)CC3C(C1=O)C3(C)C)C(C)C2=O (centres undefined) | > 100 µM (inactive) | > 100 µM (inactive) | > 100 µM (inactive) | > 100 µM (inactive) | > 100 µM | > 100 µM (inactive) | > 100 µM (inactive) | > 100 µM (inactive) | > 100 µM (inactive) | > 100 µM (inactive) | > 100 µM (inactive) | > 100 µM (inactive) | > 100 µM (inactive) | > 100 µM (inactive) | > 100 µM (inactive) | > 100 µM (inactive) | > 100 µM (inactive)
COc1cc(OC)c(/C=N/N=C(\N)NO)c(OC)c1 | > 100 µM (inactive) | 85.5 µM (inactive) | 35.4 µM (inactive) | > 100 µM (inactive) | 83.9 µM | > 100 µM (inactive) | > 100 µM (inactive) | 49.8 µM (inactive) | > 100 µM (inactive) | > 100 µM (inactive) | > 100 µM (inactive) | > 100 µM (inactive) | > 100 µM (inactive) | > 100 µM (inactive) | > 100 µM (inactive) | > 100 µM (inactive) | > 100 µM (inactive)
COc1ccc2nc3cccc([N+](=O)[O-])c3c(NCCO)c2c1 | 0.0479 µM (active) | 0.011 µM (active) | 0.0238 µM (active) | 0.00178 µM (active) | 0.00594 µM | 0.00615 µM (active) | 0.0138 µM (active) | 0.00656 µM (active) | 0.00895 µM (active) | 0.0378 µM (active) | 0.0149 µM (active) | 0.0386 µM (active) | 0.0203 µM (active) | 0.00235 µM (active) | 0.185 µM (active) | 0.00164 µM (active) | 0.0277 µM (active)
Brc1ccc(/N=N/N2CCCCC2)cc1 | 22.2 µM (inactive) | > 100 µM (inactive) | 40.1 µM (inactive) | 34.2 µM (inactive) | 27.5 µM | – | > 100 µM (inactive) | 34.3 µM (inactive) | 57.3 µM (inactive) | > 100 µM (inactive) | 42.1 µM (inactive) | 74.8 µM (inactive) | 80.7 µM (inactive) | 14.1 µM (inactive) | > 100 µM (inactive) | 52.7 µM (inactive) | 49.3 µM (inactive)
O=C(CNc1cccc(Cl)c1)Nn1c(-c2ccccc2)nc2ccccc2c1=O | 1.58 µM (inactive) | 16 µM (inactive) | 17.9 µM (inactive) | 1.77 µM (inactive) | – | 5.9 µM (inactive) | 3.37 µM (inactive) | 4.2 µM (inactive) | 9.59 µM (inactive) | 13.3 µM (inactive) | 7.1 µM (inactive) | 3.58 µM (inactive) | 18.6 µM (inactive) | 10 µM (inactive) | 10.8 µM (inactive) | 2.47 µM (inactive) | 14 µM (inactive)
C=CCOC(=O)C1=C(CCC[C@@H](C)O[Si](C)(C)C(C)(C)C)N=C(N)N2[C@H](CCO)CC[C@@H]12 | – | 14.3 µM (inactive) | – | 8.28 µM (inactive) | 17.7 µM | – | 15.3 µM (inactive) | 14.7 µM (inactive) | 17 µM (inactive) | 18.5 µM (inactive) | 11.1 µM (inactive) | 10.5 µM (inactive) | – | 9.44 µM (inactive) | 14.1 µM (inactive) | – | 15.6 µM (inactive)
CC(C)C(O)(C(=O)OCN1C(=O)C2C3C=CC(C2C1=O)C1C2C(=O)N(COC(=O)C(O)(C(C)C)C(C)O)C(=O)C2C31)C(C)O (centres undefined) | > 100 µM (inactive) | > 100 µM (inactive) | > 100 µM (inactive) | > 100 µM (inactive) | > 100 µM | > 100 µM (inactive) | > 100 µM (inactive) | > 100 µM (inactive) | > 100 µM (inactive) | > 100 µM (inactive) | > 100 µM (inactive) | > 100 µM (inactive) | > 100 µM (inactive) | > 100 µM (inactive) | > 100 µM (inactive) | > 100 µM (inactive) | –
COC(=O)Cn1c(=O)oc2nc(-c3ccccc3)cc(C(F)(F)F)c21 | – | > 100 µM (inactive) | 70.6 µM (inactive) | 42.9 µM (inactive) | > 100 µM | 32.8 µM (inactive) | > 100 µM (inactive) | 49.4 µM (inactive) | > 100 µM (inactive) | 35.8 µM (inactive) | 75.3 µM (inactive) | 86.3 µM (inactive) | > 100 µM (inactive) | 27.5 µM (inactive) | > 100 µM (inactive) | 73.1 µM (inactive) | 95.9 µM (inactive)
CC(C)(C)OC(=O)NC(Cc1ccc([N+](=O)[O-])cc1)C(=O)NC(CCCCNC(=O)OCc1ccccc1)C(=O)ON1C(=O)CCC1=O (centres undefined) | – | > 100 µM (inactive) | > 100 µM (inactive) | 73.5 µM (inactive) | > 100 µM | > 100 µM (inactive) | 43.8 µM (inactive) | > 100 µM (inactive) | > 100 µM (inactive) | > 100 µM (inactive) | > 100 µM (inactive) | > 100 µM (inactive) | > 100 µM (inactive) | 57 µM (inactive) | > 100 µM (inactive) | 26.7 µM (inactive) | –
COc1ccc2c(O)c1-c1c(OC)ccc(c1O)SSc1ccc(OC)c(c1O)-c1c(OC)ccc(c1O)SS2 | 4.56 µM (inactive) | 29 µM (inactive) | 7.87 µM (inactive) | 48.2 µM (inactive) | – | > 100 µM (inactive) | 44.3 µM (inactive) | > 100 µM (inactive) | > 100 µM (inactive) | 29.9 µM (inactive) | 20.6 µM (inactive) | 12.1 µM (inactive) | 66.4 µM (inactive) | 1.99 µM (inactive) | > 100 µM (inactive) | 16 µM (inactive) | > 100 µM (inactive)
